In PubChem BioAssay (NCI):
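Step 1: Grow cells in 96-well plates. Step 2: Expose to compound for 48 hours at 5 concentrations. Step 3: Interpolate endpoints linearly; if unreached, use highest concentration. Definition used: TGI = concentration required for complete inhibition of growth.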

Experiments:
Assay in all cases: NCI-60 cell line screen, 48 h
SF-268 CNS = tested on: SF-268 CNS
MALME-3M melanoma = tested on: MALME-3M melanoma
HT29 colon = tested on: HT29 colon
HCT-15 colon = tested on: HCT-15 colon
NCI-H522 lung = tested on: NCI-H522 lung
OVCAR-5 ovarian = tested on: OVCAR-5 ovarian
IGROV1 ovarian = tested on: IGROV1 ovarian
HCC-2998 colon = tested on: HCC-2998 colon
ACHN renal = tested on: ACHN renal
RPMI-8226 leukemia = tested on: RPMI-8226 leukemia
SK-MEL-2 melanoma = tested on: SK-MEL-2 melanoma
LOX IMVI melanoma = tested on: LOX IMVI melanoma
MDA-MB-231 breast = tested on: MDA-MB-231 breast

Compound | TGI (SF-268 CNS) [µM] | TGI (MALME-3M melanoma) [µM] | TGI (HT29 colon) [µM] | TGI (HCT-15 colon) [µM] | TGI (NCI-H522 lung) [µM] | TGI (OVCAR-5 ovarian) [µM] | TGI (IGROV1 ovarian) [µM] | TGI (HCC-2998 colon) [µM] | TGI (ACHN renal) [µM] | TGI (RPMI-8226 leukemia) [µM] | TGI (SK-MEL-2 melanoma) [µM] | TGI (LOX IMVI melanoma) [µM] | TGI (MDA-MB-231 breast) [µM]
CCOC(=O)c1ccc(N2C(=S)N(C(=O)c3ccccc3)C(=Nc3ccccc3)C2=Nc2ccccc2)cc1 | > 100 | > 100 | > 100 | > 100 | > 100 | > 100 | > 100 | > 100 | > 100 | > 100 | > 100 | – | –
CC(=O)OC1CC2C(C)(C)OC(=O)CC(OC(C)=O)[C@]2(C)C2CCC3(C)C(=CCC3[C@H]3COC(=O)C3)[C@]12C (some centres undefined) | > 100 | > 100 | > 100 | > 100 | > 100 | > 100 | > 100 | > 100 | > 100 | > 100 | > 100 | > 100 | –
Cc1ccc2nc(Cl)c(/C=N/N3C(=O)/C(=C/c4ccccc4S)N=C3c3ccccc3)cc2c1 | > 100 | – | > 100 | > 100 | – | > 100 | > 100 | > 100 | > 100 | 68.1 | 52.2 | > 100 | > 100
NC1=NS(=O)(=O)Nc2nc(-c3ccc([N+](=O)[O-])cc3)[nH]c21 | > 100 | > 100 | > 100 | > 100 | > 100 | > 100 | > 100 | > 100 | > 100 | > 100 | > 100 | > 100 | –
O=C(Cc1ccccc1)NN1C(=O)/C(=C\c2cccc(O)c2)SC1=Nc1ccccc1 | > 100 | – | > 100 | > 100 | – | > 100 | > 100 | > 100 | > 100 | – | > 100 | – | > 100
CN1NC(=Nc2ccccc2)Sc2c1cnn(-c1ccccc1)c2=O | – | > 100 | > 100 | > 100 | – | – | > 100 | > 100 | > 100 | > 100 | > 100 | > 100 | –
CC(C)C(=O)/C=C/c1ccc(Br)cc1 | 48.4 | – | 31.6 | – | 41.5 | 27.5 | 34.5 | 30.9 | 25.4 | 39.2 | 29.7 | 32.1 | –
COC(=O)OCC1OC(N2C(=O)NC(=O)C(Br)C2N=[N+]=[N-])CC1OC(=O)OC (centres undefined) | > 100 | > 100 | > 100 | > 100 | > 100 | > 100 | > 100 | > 100 | > 100 | > 100 | – | > 100 | –
Cc1cc(C)cc(Nc2cc(=O)[nH]c(=O)[nH]2)c1 | > 100 | > 100 | > 100 | > 100 | – | > 100 | > 100 | > 100 | > 100 | > 100 | – | > 100 | > 100
O=C(Cc1ccccc1)NN1C(=O)C(Cl)C1c1ccc(O)cc1 (centres undefined) | > 100 | > 100 | > 100 | > 100 | > 100 | > 100 | > 100 | > 100 | > 100 | > 100 | > 100 | > 100 | –
O=C1Nc2c(ccc(Cl)c2I)C1=O | 39.4 | 28.3 | > 100 | 38.6 | 30.6 | 34.3 | 30.7 | 34.4 | 29 | 35.8 | 27.7 | 37 | –
O=C1c2ccccc2CCCCCCCCCCC12OCCCO2 | 96.7 | 77.8 | 42.9 | 92.3 | 67.2 | 66.8 | > 100 | 68.2 | > 100 | 40 | 68.3 | 84.8 | –
CC(=O)C1=C(C)NC2C=CC=CN12 (centres undefined) | > 100 | > 100 | > 100 | > 100 | > 100 | > 100 | > 100 | > 100 | > 100 | > 100 | > 100 | > 100 | –
Nc1c(Cl)ncnc1N[C@@H]1C[C@H]1CO | > 100 | – | > 100 | > 100 | > 100 | > 100 | > 100 | > 100 | > 100 | – | > 100 | > 100 | > 100
COC(=O)C1=C2SCc3cccc(c3)CSC3=C(C(=O)OC)SC(=C(S2)S1)S3 | – | – | – | – | – | – | – | > 100 | > 100 | > 100 | > 100 | – | 74.9
CC1=COC(C)(C=C(C#N)C#N)CC1 (centres undefined) | > 100 | > 100 | > 100 | – | – | > 100 | > 100 | > 100 | > 100 | > 100 | – | – | > 100
Cc1cn(C2CC(n3cc(Cn4cc(Br)c(=O)[nH]c4=O)nn3)C(CO)O2)c(=O)[nH]c1=O (centres undefined) | > 100 | > 100 | – | > 100 | – | > 100 | > 100 | > 100 | > 100 | > 100 | > 100 | > 100 | > 100
N#Cc1c(-c2ccccc2)nc(-c2ccccc2)sc1=S | > 100 | > 100 | > 100 | > 100 | – | > 100 | > 100 | > 100 | > 100 | > 100 | > 100 | > 100 | > 100
O=C1c2ccccc2C(=O)N1Cc1ccccc1-c1c2nc(c(-c3ccccc3CN3C(=O)c4ccccc4C3=O)c3ccc([nH]3)c(-c3ccccc3CN3C(=O)c4ccccc4C3=O)c3nc(c(-c4ccccc4CN4C(=O)c5ccccc5C4=O)c4ccc1[nH]4)C=C3)C=C2 | > 100 | > 100 | > 100 | > 100 | > 100 | > 100 | > 100 | – | > 100 | > 100 | > 100 | > 100 | –
CCCSc1ccc2[nH]c(/N=C/c3ccco3)cc2c1 | > 100 | > 100 | > 100 | > 100 | 78.2 | > 100 | > 100 | – | > 100 | 1.4 | 59 | > 100 | –
